Results taken from patent US20250345350A1, “TREATING PAIN ASSOCIATED WITH CENTRAL SENSITIZATION” (Medicon Pharmaceuticals, Inc., priority 2022, published 2025).
Where two headings read alike, the source gives them in different places.

Legend:
[1] = test system: NTG-induced migraine in mice; test: PWT (von Frey), NTG-induced migraine mouse model, oral (Example 14); conditions: 30 min after oral dose given 30 min after NTG; PS 50 mg/kg, sulindac 33 mg/kg
Method: In line with the earlier Examples, migraine was induced using 0.4 mg of NTG was administered sublingually in the form of a finely crushed 0.4 mg NTG tablet (Greenstone Brand).
Group 1: baseline (i.e, no NTG treatment, n=6) • 2. Group 2: vehicle (n=6) • 3. […] Group 4: sulindac (n=6)
Mechanical allodynia was determined using the method of von Frey filaments in line with that performed in the earlier Examples. […] The mechanical threshold, expressed as g, indicates the force of the von Frey filament to which the animal reacted.

[2] = test system: paclitaxel-induced pain associated with central sensitization in C57BL/6J mice; test: Mechanical allodynia (von Frey), paclitaxel-induced pain, topical PS 8% (Example 2); assay type: in vivo, mouse
Source text: (§1) Food and water were available ad libitum.
(§2) Paw withdrawn, licking or shaking were considered positive responses.

[3] = test system: paclitaxel-induced central sensitization in C57/BL mice; test: Paw withdrawal threshold (von Frey), paclitaxel model, topical PS (Example 1); conditions: day 10, about 30 min after last application; PS 8% hydrogel topically to both hind paws 3 times a day for 10 days
Method: The paclitaxel was administered into all study groups once a day for 3 days.
The first doses were administered 2 days after the last administration of paclitaxel.
The study groups were as follows: • 1. Group 1: paclitaxel only (n=9) • 2. Group 2: paclitaxel plus vehicle (n=10) • 3.
In order to determine the outcome of the treatment, pain threshold responses were measured using the well-established method of von Frey filaments. […] The results of the PWT test are expressed as force applied (gm). […] The data is expressed as percent change from the respective baseline value.

[4] = Pharmacokinetics and biodistribution of PS upon oral administration (Example 27); assay type: in vivo, rat; conditions: rats, single oral dose of PS 250 mg/kg; for AUC(0-t) / Cmax / half-life: Sprague-Dawley, rat; for AUC(0-t): read-out: AUC0-24 h; for Cmax: read-out: Cmax, Mean ± SEM
Method: Approximately 800 μL of blood were collected through cardiac puncture and immediately centrifuged.
Tissue samples were harvested using separate dissection instruments for each tissue sample to avoid cross contamination, and snap frozen. The levels of the test drug were determined by HPLC.
As previously described (Wen et al, 2019), each plasma sample was mixed with double volume of acetonitrile and centrifuged at 13,200 rpm for 15 min. Tissue samples were weighed, ddH2O (100-300 μL, depending on tissue weight) was added, and they were homogenized. Following addition of acetonitrile (twice the volume of the homogenate), the mixture was sonicated for 10 min, centrifuged at 13,200 rpm for 15 min, and analyzed by HPLC, as reported (Wen et al, 2019).
Briefly, the HPLC system consisted of a Waters Alliance 2695 Separations Module (Milford, MA, USA) equipped with a Waters 2998 photodiode array detector (328 nm) and a Thermo Hypersil BDS C18 column (150×4.6 mm, particle size 3 pm). The mobile phase consisted of a gradient between solvent A (formic acid, CH3CN, H2O (0.1:4.9:95 v/v/v)) and solvent B (CH3CN) at a flow rate of 1 mL-min−1 at 30° C. We applied gradient elution from 30 to 100% solvent B from 0-6 min, and it was maintained at 100% solvent B until 8 min.

[5] = test system: paclitaxel-induced CIPN in C57BL/6J mice; test: PWT (von Frey), mouse model of CIPN, oral administration (Example 5); assay type: in vivo; conditions: day 7; oral gavage three times a day for 7 days, PS 50 mg/kg, sulindac 33 mg/kg
Source text: CIPN was induced in mice with chemotherapeutic agents using established protocols (Carozzi et al, 2010; Currie et al, 2019; Eldridge et al, 2020). […] This dosing regimen of paclitaxel produces pain associated with CIPN with time courses that are similar to those of pain after paclitaxel administration in cancer patients.
Group 1: naive mice (i.e. no paclitaxel, n=8) • 2. Group 2: paclitaxel only (n=8) • 3. Group 3: paclitaxel plus vehicle (n=8) • 4. […] Group 5: paclitaxel plus sulindac (n=8)
The PWT test was performed on day 7.

[6] = test system: chronic constriction injury-induced peripheral neuropathy in C57BL/6J mice; test: Thermal allodynia PWL, chronic constriction injury model of PTPN, topical (Example 7); assay type: in vivo, mouse; conditions: PS 5% topical
[7] = test system: paclitaxel-induced CIPN in C57BL/6J mice; test: Thermal allodynia PWL (radiant heat), mouse model of CIPN, oral administration (Example 5); conditions: day 16 of treatment, oral PS 50 mg/kg, sulindac 33 mg/kg
Source text: Group 1: paclitaxel plus vehicle (n=8) • 2. […] Group 3: paclitaxel pluse sulindac (n=8)
The animal is placed into a plastic box with an elevated glass floor. The beam of the lamp probe is focused on the paw plantar surface, until the animal withdraws the paw, and sensors in the device shut off the lamp. The thermal allodynia threshold is defined as the latency time until paw withdrawal (PWL) and expressed in seconds (sec) or thermal allodynia threshold.

[8] = test system: chronic constriction injury-induced peripheral neuropathy in C57BL/6J mice; test: PWT (von Frey), chronic constriction injury model of PTPN, topical (Example 7); conditions: day 14; PS 5% gel or sulindac 0.7% gel on left paw three times a day for 14 days; pregabalin once by oral gavage 1 h before
Method: Group 1: ligation only (i.e, surgical control with no treatment, n=5-7) • 2. Group 2: vehicle control (n=5-7) • 3. […] Group 4: 0.7% sulindac (n=5-7) • 5.
Briefly, for determining mechanical allodynia, pain threshold responses were measured using the well-established method of von Frey filaments in line with that performed in the earlier Examples. The PWT test was performed on day 14. The mechanical threshold, expressed as g, indicates the force of the von Frey filament to which the animal reacted.

[9] = Preliminary in vivo evidence, PS to the ocular surface, corneal neuropathic pain (Example 22); conditions: topical PS to the ocular surface
[10] = Preliminary in vivo evidence, topical PS hydrogel, PHN (Example 19)
[11] = test system: vincristine-induced pain associated with central sensitization in C57BL/6J mice; test: Mechanical allodynia (von Frey), vincristine-induced pain, topical PS 8% (Example 2); assay type: in vivo, mouse
Source text: as §1
Protocol for the Treatment of Established Pain Associated with Central Sensitization with PS
as §2

[12] = Safety of PS ointment applied to hind paws of mice; assay type: in vivo, mouse; conditions: PS ointment thrice daily to the hind paws of mice for up to 22 days
Source text: This finding is in keeping with the known safety profile of PS.

COX-1 = COX-1 (Homo sapiens, UniProt P23219); conditions: background statement; cited from earlier work
[13] = test system: chronic constriction injury-induced peripheral neuropathy in C57BL/6J mice; test: PWT (von Frey), PTPN model, oral administration (Examples 9 and 10); conditions: day 6; PS orally three times a day for 6 days at 100 mg/kg
Method: Group 1: ligation only (i.e, surgical control with no treatment, n=9) • 2. Group 2: vehicle (n=9) • 3.
Mechanical allodynia was determined using the method of von Frey filaments in line with that performed in the earlier Examples. The PWT test was performed on day 6. The mechanical threshold, expressed as g, indicates the force of the von Frey filament to which the animal reacted.

[14] = PS to outer surface of the eyelid in a subject after LASIK (Example 22); assay type: in vivo; conditions: topical PS to the outer surface of the eyelid, one subject
COX-2 = target: T1, COX-2 (Homo sapiens, UniProt P35354); conditions: background statement; cited from earlier work
T1 sequence (P35354 18-604): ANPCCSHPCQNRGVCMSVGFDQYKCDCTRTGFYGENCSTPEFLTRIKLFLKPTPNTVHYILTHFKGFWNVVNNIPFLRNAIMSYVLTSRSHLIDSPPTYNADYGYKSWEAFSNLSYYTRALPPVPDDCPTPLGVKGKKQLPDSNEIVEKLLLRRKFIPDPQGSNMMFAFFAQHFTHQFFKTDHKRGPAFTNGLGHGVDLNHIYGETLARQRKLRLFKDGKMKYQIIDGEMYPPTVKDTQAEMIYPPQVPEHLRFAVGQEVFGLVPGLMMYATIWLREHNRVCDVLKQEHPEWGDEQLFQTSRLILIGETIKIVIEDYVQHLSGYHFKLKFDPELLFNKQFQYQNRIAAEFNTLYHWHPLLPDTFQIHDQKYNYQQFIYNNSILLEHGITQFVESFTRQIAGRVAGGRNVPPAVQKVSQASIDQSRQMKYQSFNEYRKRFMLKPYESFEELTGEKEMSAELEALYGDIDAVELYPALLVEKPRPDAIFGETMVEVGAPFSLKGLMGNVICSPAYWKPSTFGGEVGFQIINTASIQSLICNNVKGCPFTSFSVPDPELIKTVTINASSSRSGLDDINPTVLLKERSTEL

Chain of COX-1 (P23219 24-599): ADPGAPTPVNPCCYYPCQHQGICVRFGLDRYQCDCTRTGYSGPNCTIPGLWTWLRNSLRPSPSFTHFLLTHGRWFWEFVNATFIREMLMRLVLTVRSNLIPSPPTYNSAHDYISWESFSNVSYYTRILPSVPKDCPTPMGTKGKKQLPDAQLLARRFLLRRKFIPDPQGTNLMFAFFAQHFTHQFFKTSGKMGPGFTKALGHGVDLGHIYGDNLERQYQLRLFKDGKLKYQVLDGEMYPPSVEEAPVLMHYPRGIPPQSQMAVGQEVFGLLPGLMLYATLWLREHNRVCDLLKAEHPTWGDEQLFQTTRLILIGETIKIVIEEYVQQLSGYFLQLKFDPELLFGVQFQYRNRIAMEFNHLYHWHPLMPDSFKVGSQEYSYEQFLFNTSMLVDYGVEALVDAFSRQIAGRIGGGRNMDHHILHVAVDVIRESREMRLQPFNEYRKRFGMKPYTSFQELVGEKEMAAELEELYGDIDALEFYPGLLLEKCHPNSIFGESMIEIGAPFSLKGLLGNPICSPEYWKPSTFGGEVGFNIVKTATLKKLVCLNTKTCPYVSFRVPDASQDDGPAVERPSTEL

In the case of `CCOP(=O)(OCC)OCCCCOC(=O)CC1=C(C)/C(=C/c2ccc([S+](C)[O-])cc2)c2ccc(F)cc21` (centres unmarked) [PS, phosphosulindac], the “PWT, g Mean ± SEM” value [1] is reported as 1.96 ± 0.49 g, the “mechanical allodynia score, mean±SEM” value ([2]; day 0 (initiation of treatment), paclitaxel-induced pain) is reported as 0.79 ± 0.08 g and the “mechanical allodynia score, mean±SEM” value ([2]; day 5, PS 8% ointment 3x/day to hind paws) is reported as 1.17 ± 0.07 g. The “mechanical allodynia score, mean±SEM” value ([2]; day 16, PS 8% ointment 3x/day to hind paws) was 2.49 ± 0.18 g, the “PWT, % baseline Mean ± SEM” value [3] was 102.55 ± 4.92 % baseline and the AUC(0-t) ([4]; cerebellum) was 0.2 µM·h. The Cmax ([4]; cerebellum) was 300 ± 70 nM, the AUC(0-t) ([4]; medulla) was 0.3 µM·h and the Cmax ([4]; medulla) was 500 ± 100 nM. It also gave a half-life ([4]; stomach) of 198 min, an AUC(0-t) ([4]; stomach) of 1280 µM·h and a Cmax ([4]; stomach) of 661000 ± 6500 nM. The half-life ([4]; vagus nerve) was 198 min, the AUC(0-t) ([4]; vagus nerve) was 1.7 µM·h and the Cmax ([4]; vagus nerve) was 1200 ± 200 nM. For the same compound, the “detection in the systemic circulation” value [4] was “No PS was detected”, the “PWT, g Mean ± SEM” value [5] was 0.99 ± 0.13 g and the “PWL, sec Mean ± SEM” value [6] was 9.1 ± 2.9 s. For the same compound, the “PWL, sec Mean ± SEM” value [7] was 10.78 ± 1.1 s, the “PWT, g Mean ± SEM” value [8] was 1.30 ± 0.15 g and the “analgesic effect on corneal neuropathic pain” value [9] was “striking analgesic effect”. For the same compound, the “analgesic effect on neuropathic pain associated with PHN” value [10] was “striking analgesic effect”, the “increase of allodynia score compared to day 0” value ([11]; PS 8% ointment 3x/day for 16 days) was 114% and the “mechanical allodynia score, mean±SEM” value ([11]; day 16) was 1.5 ± 0.09 g. For the same compound, the “topical or systemic side effects” value [12] was “no topical or systemic side effects”, the “inhibition of COX-1” value (COX-1) was “does not inhibit” and the “PWT, g Mean ± SEM” value [13] was 1.63 ± 0.38 g. For the same compound, the “effect on chronic pain after LASIK” value [14] was “dramatically reduced chronic pain” and the “inhibition of COX-2” value (COX-2) was “does not inhibit”.
